“Also recorded” adds a separate entry of the source.
Tests used:
[1] = system: cultured hippocampal neurons treated with ω-conotoxin (P/Q-dominated cells); format: cell-based, rat
N-type currents = N-type currents (Rattus norvegicus, UniProt Q02294); format: cell-based

Molecule	amplitude of spontaneous synaptic currents [1]	reversal of Aβ globulomer-induced reduction of frequency of spontaneous synaptic events [1]	amplitude of synaptic events (mIPSCs) [1]	effect on amplitude of mIPSCs when P/Q channels are already blocked [1]	effect on synaptic activity / frequency of mIPSCs after blockade of P/Q channels by ω-agatoxin [1]	frequency of spontaneous synaptic events [1]	N-type calcium current amplitude (N-type currents) [pA]
CC[C@H](CO)Nc1nc(NCc2ccccc2)c2ncn(C(C)C)c2n1 [roscovitine]	No effect	reversal	–	–	–	–	–
Aβ(1-42) globulomer: soluble, globular, non-covalent association of Aβ(1-42) peptides, apparent molecular weight 38/48 kDa, obtained as in Example 6b of WO2004/067561	–	–	no or little effect; also recorded: no effect	No effect	No additive effect; also recorded: no further effect	inhibits the frequency of spontaneous synaptic events	1399.8±376.4
